The results in this text go back to patent EP0354047A2, “Herbicidal method using atrazine” (MAY & BAKER LIMITED, priority 1988, dated 1990).

Type in all cases: in vivo
In one test the test system is Brassica kaber. As to the kind of experiment: Experiment 4: glasshouse, pre-emergence, fresh weight after 27 days, % inhibition of growth. Conditions: for % inhibition of growth: Compound 99 0 g/ha. Here is the method: (§1) Glasshouse experiments showing the biological interaction between atrazine and Compound 99 on weed species when applied pre-emergence. […] After 27 days the fresh weight of vegetation in each pot was determined. […] E = […]00005:character} where E, X and Y are percentage inhibition of growth. In addition the ED90 values (the application rate giving 90% inhibition of growth) were calculated from the results for Compound 99 alone and with increasing rates of atrazine. The ED90 values were then used to plot an isobole for each species according to the method of […] op cit. The results of percentage inhibition of growth, the ED values calculated from them and the calculated expected values are given in Table 8.

The next test deals with Sida spinosa. The test is described as above. Conditions: for % inhibition of growth: Compound 99 0 g/ha. As for the experimental part: as §1
In test [1] the test system is Brachiaria plantaginea (BRAPL). In words: Experiment 1: field experiment, post-emergence spray, % control 29 days after application. Conditions: Atrazine 1500g/ha. Here is the method:
(§2) Duplicate 12m² plots were sprayed post-emergence with 250g or 500g/ha Compound 1 (in a composition according to Example 1 as described hereinafter) or 1500g/ha atrazine (in a commercial aqueous suspension concentrate formulation containing 500g/l w/v atrazine or a combination (as a tank mix) of the two herbicides in a volume of 300 litres/ha. The following control figures were recorded on the grass weeds Brachiaria plantaginea (BRAPL), Digitaria horizontalis (DIGHO) and Eleusine indica (ELEIN) 29 days after application.

A further test concerns Eleusine indica (ELEIN). Described as above. The following applies: Atrazine 1500g/ha. Here is the method:
as §2

Test [2] relates to Digitaria horizontalis (DIGHO). The test is described as above. The following applies: Atrazine 1500g/ha. As for the experimental part: as §2

As usually defined, the % inhibition of growth is the percentage by which the read-out fell short of the control. The low end stands for a response near the control, the high end for a response far below the control.

For `CCNc1nc(Cl)nc(NC(C)C)n1` [Atrazine, 2-chloro-4-ethylamino-6-isopropylamino-1,3,5-triazine], the results for the ED₉₀ result in the test with Brassica kaber (Atrazine alone) and in the test with Sida spinosa (Atrazine alone) were “ED₉₀(g/ha) 157.7” and “ED₉₀(g/ha) 478.75”, respectively. Further, the “% inhibition of growth” value in the test on Brassica kaber (Atrazine 16 g/ha) is given as 0%; with Brassica kaber (Atrazine 31 g/ha), 0%; in the test with Brassica kaber (Atrazine 63 g/ha) it was 34%; in the test on Brassica kaber (Atrazine 125 g/ha) it was 70%; with Brassica kaber (Atrazine 250 g/ha) it was 100%; in the test with Brassica kaber (Atrazine 500 g/ha), 100%. Moreover, the “% inhibition of growth” value with Sida spinosa (Atrazine 16 g/ha) came to 10%; with Sida spinosa (Atrazine 31 g/ha), 2%; in the test with Sida spinosa (Atrazine 63 g/ha) it was 15%; with Sida spinosa (Atrazine 125 g/ha) it was 23%; in the test with Sida spinosa (Atrazine 250 g/ha) it was 37%; in the test on Sida spinosa (Atrazine 500 g/ha) it was 95%. Also, the “% control observed” value was found to be 10% in test [1], 0% in the test with Eleusine indica (ELEIN) and 0% in test [2].
